For orientation: LD50 means the dose at which mortality reaches 50%.

This is an account of results in patent publication US20230339919A1, “BENZO OXYGEN-CONTAINING HETEROCYCLIC COMPOUNDS AND MEDICAL APPLICATION THEREOF” (AB PHARMA LTD., priority 2020, published 2023).

Series [1] can be described thus: Acute Toxicity Study (MTD) by gavage in healthy mice. The settings on record: mouse, in vivo, po. In kind it is in vivo.
The next series relates to healthy mice. The series is described as above. In kind it is in vivo. The settings on record: for survival rate of the mice after administration: 5 days.
In series [2] the target is BSEP bile salt transporter (Homo sapiens, UniProt O95342). Kind of series: BSEP (Bile Salt Export Pump) assay, taurocholic acid uptake by BSEP vesicles, LC/MS/MS. In kind it is in vitro ADME. An excerpt:
In this experiment, we performed a preliminary study on the inhibition of the uptake of the substrate taurocholic acid (TCA) by the BSEP bile salt transporter by LC/MS/MS. The BSEP protein microvesicles with reverse uptake ability were obtained by transfecting Hi5 cells with the BSEP gene, which is capable of TCA uptake and uptake of taurocholic acid. The principle of this experiment is to perform substrate uptake by BSEP protein microcapsules in the presence of energy ATP, the substrate TCA and the candidate compound to be tested, after a certain transit time, the energy, substrate and candidate compound were completely washed out of the microvesicle, and the absorbed substrate TCA was released by lysis of the microvesicle. […] The starting concentration of the sample was 100 mM, diluted in 2-fold gradient with Bravo apparatus, with 11 concentration gradients; the lowest point concentration was 97.65 μM. • 3. Control compound (Glyburide) starting at 20 mM, diluted in 2-fold gradient with Bravo instrument, with 11 concentration gradients; the lowest point concentration was 19.53 μM. • 4. 300 nl of compound was transferred to the middle plate using the ECHO autosampler. • 5. Positive control (HPE) wells and negative control (ZPE) wells were also transferred 300 nl DMSO each. […] Add 14.7 μl of ATP buffer to the corresponding wells of the compound and ZPE, respectively. • 2. Add 14.7 μl of AMP buffer to the corresponding wells of the HPE. • 3. Shake the plate at 25 degrees C. for 10 minutes. • 4. […] Immediately add 5 ul of 0.5M EDTA solution to all wells, and then add 65 μl of Buffer B. All reactions are completed. • 6. Transfer […] of liquid from the end of reaction compound plate to the filter plate using the spiking apparatus. • 7. After placing the liquid receiving plate under the filter plate, use a centrifuge to remove the liquid and discard the liquid received in the receiving plate. • 8. Add 90 μl of buffer B to the filter plate and repeat step 7. Repeat steps 7 and 8 to wash the filter plate a total of three times. • 9. Let the filter plate dry overnight. • 10. Add 81 μl of 80% methanol/water solution to the filter plate the next day. • 11. Apply membrane to the filter plate and vibrate the plate for 15 minutes. • 12. Place a new liquid receiver plate under the filter plate and centrifuge for 5 min to filter all the liquid from the filter plate into the receiver plate. • 13. Add 13.5 μl of internal standard solution to each well of the liquid receiver plate and seal the plate with a sealing film. • 14. Using LC/MS/MS, detect the content of taurocholic acid in the receiver plate.

The target of another series is hERG (Homo sapiens, UniProt Q12809). The series is described as follows: hERG assay.
hERG, sequence (Q12809 whole entry): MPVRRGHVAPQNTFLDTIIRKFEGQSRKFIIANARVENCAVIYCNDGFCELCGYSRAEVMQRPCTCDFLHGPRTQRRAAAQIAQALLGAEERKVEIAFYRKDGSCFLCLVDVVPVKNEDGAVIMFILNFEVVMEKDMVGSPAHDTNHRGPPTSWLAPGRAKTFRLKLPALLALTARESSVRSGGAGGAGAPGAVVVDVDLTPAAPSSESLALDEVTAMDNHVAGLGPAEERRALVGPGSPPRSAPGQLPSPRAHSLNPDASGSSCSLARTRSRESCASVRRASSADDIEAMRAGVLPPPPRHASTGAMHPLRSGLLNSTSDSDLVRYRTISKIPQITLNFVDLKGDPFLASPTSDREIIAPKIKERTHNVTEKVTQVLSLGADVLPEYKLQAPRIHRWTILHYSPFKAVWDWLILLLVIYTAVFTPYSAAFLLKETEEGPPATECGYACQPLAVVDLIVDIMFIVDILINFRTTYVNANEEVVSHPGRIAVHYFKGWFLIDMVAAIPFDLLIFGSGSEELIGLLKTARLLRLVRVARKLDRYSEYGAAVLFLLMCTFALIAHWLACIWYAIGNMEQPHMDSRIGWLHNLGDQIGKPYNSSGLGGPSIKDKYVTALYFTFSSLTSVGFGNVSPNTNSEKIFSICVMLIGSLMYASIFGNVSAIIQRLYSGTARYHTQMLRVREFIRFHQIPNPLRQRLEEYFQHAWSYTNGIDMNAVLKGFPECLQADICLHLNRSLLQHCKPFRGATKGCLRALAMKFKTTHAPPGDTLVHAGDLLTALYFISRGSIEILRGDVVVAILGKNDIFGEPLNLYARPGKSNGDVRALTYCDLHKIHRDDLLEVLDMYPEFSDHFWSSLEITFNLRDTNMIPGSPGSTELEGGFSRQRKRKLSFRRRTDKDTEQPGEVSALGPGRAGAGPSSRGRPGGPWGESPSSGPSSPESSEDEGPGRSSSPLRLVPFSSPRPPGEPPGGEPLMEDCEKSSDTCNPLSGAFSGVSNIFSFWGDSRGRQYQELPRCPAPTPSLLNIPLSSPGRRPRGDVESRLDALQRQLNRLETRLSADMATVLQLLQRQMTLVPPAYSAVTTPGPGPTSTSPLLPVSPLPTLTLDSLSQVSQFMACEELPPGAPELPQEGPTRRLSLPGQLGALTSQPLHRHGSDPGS
For the next series, the target named is T1, GPR40 (Homo sapiens, UniProt O14842).
T1 construct: expressed in transfected cells; host or cells: CHO-K1
T1 sequence (O14842 whole entry): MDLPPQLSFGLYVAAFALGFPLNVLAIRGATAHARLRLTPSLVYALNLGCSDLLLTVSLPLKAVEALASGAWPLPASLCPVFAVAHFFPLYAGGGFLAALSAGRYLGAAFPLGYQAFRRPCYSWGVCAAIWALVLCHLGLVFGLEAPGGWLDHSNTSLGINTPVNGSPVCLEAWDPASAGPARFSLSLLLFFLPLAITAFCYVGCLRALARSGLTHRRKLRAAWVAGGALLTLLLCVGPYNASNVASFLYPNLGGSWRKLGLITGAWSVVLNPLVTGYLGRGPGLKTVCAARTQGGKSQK
Kind of series: GPR40 agonist activity, FLIPR calcium assay in CHO-K1/GPR40 cells. In kind it is cell-based. Here is the method:
Inoculate CHO-K1/GPR40 cells in 384-well plates at a density of 10,000 cells/well. Cells were incubated at 37° C. for 24 hours in a 5% CO2 incubator. After the experiment, discard the cell culture medium, quickly add […] of 1× FLIPR® Calcium 6 dye containing 2.5 mM/Probenecid to each well and incubate at 37° C. for 2 hours protected from light. For the determination, different concentrations of drug ([…]) were added to the wells and the fluorescence values were read. The fluorescence excitation wavelength was 494 nm and emission wavelength was 516 nm. FLIPR instrument data, EC50 was derived from the formula Y=Bottom+(Top−Bottom)/(1+(EC50/X)^HillSlope).

For series [3] the following is noted: cited from earlier work.
The mark [4] stands for this setting: inhibition of TCA uptake by BSEP vesicles, read-out: Potential inhibitory side effects BSEP (IC50).
Setting [5] is: GPR40 agonist activity range (EC50), CHO-K1/GPR40 cells, read-out: GPR40 activity.
Setting [6] is: Table 4, read-out: GPR40 Activity (hEC50).
[7] abbreviates: read-out: GPR40 activity (EC50).

“Also recorded” adds a separate entry of the source. Read-outs that look alike come from different tables or passages of the source.

BSEP bile salt transporter, sequence (O95342 whole entry): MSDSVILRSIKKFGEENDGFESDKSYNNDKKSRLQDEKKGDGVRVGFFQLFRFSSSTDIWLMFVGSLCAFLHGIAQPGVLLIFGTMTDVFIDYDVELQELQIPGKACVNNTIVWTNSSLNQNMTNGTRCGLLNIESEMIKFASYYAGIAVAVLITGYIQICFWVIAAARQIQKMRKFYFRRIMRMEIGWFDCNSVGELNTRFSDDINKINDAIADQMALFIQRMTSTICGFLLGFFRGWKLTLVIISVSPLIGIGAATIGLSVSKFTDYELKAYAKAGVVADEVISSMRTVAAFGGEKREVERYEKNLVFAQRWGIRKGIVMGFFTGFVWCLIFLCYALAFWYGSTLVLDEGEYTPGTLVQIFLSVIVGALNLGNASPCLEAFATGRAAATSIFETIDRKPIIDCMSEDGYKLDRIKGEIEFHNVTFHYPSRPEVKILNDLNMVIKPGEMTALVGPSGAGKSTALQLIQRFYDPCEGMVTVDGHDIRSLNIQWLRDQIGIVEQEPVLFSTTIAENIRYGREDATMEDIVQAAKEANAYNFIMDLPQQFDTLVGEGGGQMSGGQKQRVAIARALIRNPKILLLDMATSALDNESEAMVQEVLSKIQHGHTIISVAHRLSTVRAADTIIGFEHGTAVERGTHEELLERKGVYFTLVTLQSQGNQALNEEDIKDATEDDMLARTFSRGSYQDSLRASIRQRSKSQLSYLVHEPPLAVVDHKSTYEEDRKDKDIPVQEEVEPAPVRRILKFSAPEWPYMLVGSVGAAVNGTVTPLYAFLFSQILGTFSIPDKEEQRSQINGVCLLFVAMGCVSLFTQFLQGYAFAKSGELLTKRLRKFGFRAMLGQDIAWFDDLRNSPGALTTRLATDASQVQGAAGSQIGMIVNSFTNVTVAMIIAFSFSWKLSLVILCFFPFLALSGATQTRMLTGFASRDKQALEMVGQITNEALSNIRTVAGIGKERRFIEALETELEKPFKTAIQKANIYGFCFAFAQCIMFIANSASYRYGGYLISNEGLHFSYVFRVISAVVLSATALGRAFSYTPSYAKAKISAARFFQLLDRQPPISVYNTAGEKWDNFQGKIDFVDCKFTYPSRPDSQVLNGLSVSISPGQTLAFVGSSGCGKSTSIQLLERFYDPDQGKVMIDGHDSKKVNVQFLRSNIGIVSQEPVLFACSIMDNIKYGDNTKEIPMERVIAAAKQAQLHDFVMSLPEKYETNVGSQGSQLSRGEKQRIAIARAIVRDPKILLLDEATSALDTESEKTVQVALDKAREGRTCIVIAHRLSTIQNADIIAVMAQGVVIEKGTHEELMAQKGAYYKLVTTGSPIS

Regarding `CC(C)(C)OC(=O)Nc1cc(COc2ccc3c(c2)OC[C@H]3CC(=O)O)c2c(c1)OCO2` [IIb-43], the Ames assay result in “Ames assay” was “no relevant side effects”. The LD50 at 5 days in series [1] (mice, 600 mg/kg by gavage, 5 consecutive days, read-out: LD50) is above 600 mg/kg. The “overall / acute toxicity” value in the series on healthy mice (MTD high dose 600 mg/kg/day, mice, 600 mg/kg/day) is “low and very low”. In addition, in the series with healthy mice (during the dosing and 5-day recovery period, 600 mg/kg), the “abnormalities in body weight and external and internal observations” value is recorded as “no abnormalities”. Besides, the “autopsy results (heart, liver, lung, kidney, intestine)” value in the series on healthy mice (mice, 600 mg/kg) is “did not reveal any abnormal changes; also recorded: did not reveal any abnormalities”. Besides, the “survival rate of the mice after administration” value (“survival rate of the mice” below) with healthy mice (mice, 600 mg/kg by gavage) turned out to be 100%. The IC50 in series [2] (setting [4]) is 66.8 µM; in series [2] (read-out: BSEP), above 25 µM; on hERG it was above 30 µM. The EC50 is below 0.01 µM at GPR40 (setting [5]), 0.0068 µM on GPR40 (setting [6]) and below 0.01 µM at GPR40 (setting [7]).

As to `O=C(O)C[C@@H]1COc2cc(OCc3cccc4c3OC(F)(F)O4)ccc21` [IIb-18], the Ames assay result in the series “Ames assay” was “no relevant side effects”. The compound also returned an LD50 at 5 days in series [1] (600 mg/kg) above 600 mg/kg. In addition, the “survival rate of the mice” value with healthy mice (mouse, in vivo, 600 mg/kg) is listed as 100%. For the same compound, the IC50 in series [2] (setting [4]) is 162 µM; in series [2] (read-out: BSEP), above 25 µM; on hERG it was above 30 µM. The results for the EC50 at GPR40 (setting [5]), on GPR40 (setting [6]) and at GPR40 (setting [7]) were below 0.01 µM, 0.0079 µM and below 0.01 µM, respectively.

Turning to `Cc1cc(OCCCS(C)(=O)=O)cc(C)c1-c1cccc(COc2ccc3c(c2)OC[C@H]3CC(=O)O)c1` [Ref-1], the IC50 in series [2] (setting [4]) came to 7.1 µM. Further, the “risk of causing hypoglycaemia” value in series [3] (50 mg once daily, versus control sulphonylureas) is “significantly lower than that of the control sulphonylureas”. Moreover, the hepatotoxicity entry in series [3] (clinical studies terminated in 2013) is given as “problems with hepatotoxicity”. For the same compound, the “effect on insulin secretion” value in series [3] (when blood glucose levels are normal) was “no effect”.

As to `O=C(O)C[C@@H]1COc2cc(OCc3cc(Cl)cc4c3OCO4)ccc21` [IIb-25], the Ames assay result in “Ames assay” is listed as “no relevant side effects”. The compound also registered a median lethal dose (LD50) at 5 days in series [1] (600 mg/kg) above 600 mg/kg. For the same compound, in the series on healthy mice (mouse, in vivo, 600 mg/kg), the “survival rate of the mice” value was 100%. Moreover, the IC50 in series [2] (setting [4]) was 57.7 µM; in series [2] (read-out: BSEP), above 25 µM; against hERG, above 30 µM. In addition, the EC50 is below 0.01 µM on GPR40 (setting [5]), 0.0092 µM on GPR40 (setting [6]) and below 0.01 µM at GPR40 (setting [7]).
